Test results from patent US20230219912A1, “HALOGENATED BENZOTHIADIAZINES FOR THE TREATMENT OF CANCER” (BOARD OF REGENTS OF THE UNIVERSITY OF NEBRASKA, priority 2020, published 2023).
“And” between values parts separate entries of the source, which are not always exact repeats. Identical values can stand only once. “Also recorded” adds a separate entry of the source. Like-named read-outs stand apart in the source and are kept apart here.

Tests used:
[1] = system: VEGF-induced proliferation of HUVEC cells; assay: VEGF-induced HUVEC proliferation, MTT assay; format: cell-based, human; details: VEGF 10 ng/mL; for inhibition of VEGF-induced HUVEC proliferation (in words): 20 μM; for inhibition at 20 µM: Homo sapiens, read-out: % Inhibition of Proliferation
Experimental: The assay was performed as follows. Vascular endothelial growth factor (VEGF, Cat #SRP3182) was purchased from Sigma. […] Stock solutions of all compounds were prepared in DMSO and were serially diluted for cell culture treatment maintaining the final DMSO concentration at less than 1%. Cell proliferation of HUVECs was evaluated through the MTT (3-[4, 5-dimethylthiazol-2-yl]-2, 5-dimethyltetrazolium bromide) colorimetric assay, as previously described.^28 The HUVECs were seeded at a density of 10,000 cells/well in 24 well plates in serum-containing medium and cultured overnight. Cells were starved with 300 μL of assay media (0.1% BSA+0.1% FBS in basal medium) for 24 h. Then, cells were treated with 500 μL of assay medium (control group), VEGF (10 ng/mL, positive control group) or VEGF along with compounds (20 μM). After 48 h of culture, 50 μL of MTT stock (5 mg/mL in PBS) was added to each well and incubated for 2 h at 37° C. to allow the formation of dark blue formazan crystals in the metabolically active cells. The medium was removed, the cells were washed with PBS (pH 7.4), and 100 μL of acidified isopropanol (0.33 mL HCl in 100 mL isopropanol) was added to each well and incubated for 5 min with thorough agitation to solubilize the formazan crystals. An equal volume of the solution was transferred to a 96-well plate and the absorbance was immediately measured using a microplate reader at a wavelength of 570 nm.

[2] = system: human embryonic kidney (HEK293) cells; assay: MTS cytotoxicity assay in HEK293 cells; format: cell-based; details: 72 hours, mean ± SD n = 3
Experimental: (§1) The assay was performed as follows. To determine the cell growth inhibition ability of the synthesized compounds the (3-(4,5-dimethylthiazol-2-yl)-5-(3-carboxymethoxyphenyl)-2-(4-sulfophenyl)-2H-tetrazolium) (MTS) assay used according to the manufacturer's recommended protocol. Stock solutions of the synthesized compounds were prepared in DMSO. Cells were seeded at a density of 1×10^5 cells in 96-well plates. After 24 hours, cells were treated at the indicated concentrations of test compounds, limiting the final DMSO concentration to less than 1%. After incubation at 37° C. in an environment of 5% CO2 for 48-72 hours, 10 μL of MTS reagent (CellTiter 96© AQueous One Solution Reagent) was added to each well and incubated at the above mentioned conditions for 2-4 hr. Absorbance was recorded at 490 nm on a BioTek Synergy Mx multimode plate reader and the viability of cells were plotted as percentage of controls.
Cytotoxicity was also evaluated by using the low tumorigenic HEK293 cells at 50 μM concentration.

[3] = system: 22Rv1 prostate cancer cells; assay: MTS cytotoxicity assay in 22Rv1 prostate cancer cells; details: Homo sapiens; for cytotoxicity at 100 µM: 22Rv1, 48 h, read-out: reduction of 22Rv1 cell viability
Experimental: as §1

[4] = system: Mitochondrial respiratory complex II (CII); details: literature, cited from earlier work
[5] = system: MDA-MB-468 triple negative breast cancer cells; assay: MTS cytotoxicity assay in MDA-MB-468 triple negative breast cancer cells; format: cell-based; details: Homo sapiens, MDA-MB-468; 72 hours; mean ± SD n = 3
Experimental: The assay was performed as follows.
Derivatives were dosed at 10, 50 and 100 μM for 24, 48 and 72 hours and cell viability measured by MTS assay (FIG. 5).

[6] = target: T1, Mitochondrial respiratory complex II (Rattus norvegicus, UniProt P21913+Q641Z9+Q6PCT8+Q920L2); assay: Mitochondrial respiratory complex II inhibition assay; format: biochemical; details: for inhibition at 100 µM: read-out: inhibition of CII
T1 construct: measured spectrophotometrically using isolated rat heart mitochondria; from tissue; host or cells: rat heart mitochondria / sub-mitochondrial particles
T1 sequence (Q920L2 35-656): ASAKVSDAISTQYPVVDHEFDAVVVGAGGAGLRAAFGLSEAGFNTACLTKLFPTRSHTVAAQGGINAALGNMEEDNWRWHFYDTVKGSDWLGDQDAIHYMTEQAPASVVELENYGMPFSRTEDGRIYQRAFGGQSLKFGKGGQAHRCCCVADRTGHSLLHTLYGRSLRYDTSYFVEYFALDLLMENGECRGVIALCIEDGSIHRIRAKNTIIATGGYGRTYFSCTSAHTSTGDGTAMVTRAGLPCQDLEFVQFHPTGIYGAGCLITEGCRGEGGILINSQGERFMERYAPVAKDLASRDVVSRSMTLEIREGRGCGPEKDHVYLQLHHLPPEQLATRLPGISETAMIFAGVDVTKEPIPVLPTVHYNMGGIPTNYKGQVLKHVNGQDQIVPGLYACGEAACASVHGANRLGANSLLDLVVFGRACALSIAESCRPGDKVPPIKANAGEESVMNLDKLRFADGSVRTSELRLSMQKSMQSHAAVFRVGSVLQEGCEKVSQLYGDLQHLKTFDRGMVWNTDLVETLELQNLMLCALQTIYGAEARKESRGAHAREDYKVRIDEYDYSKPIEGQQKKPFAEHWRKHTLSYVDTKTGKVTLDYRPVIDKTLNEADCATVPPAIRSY
T1 sequence (P21913 31-282): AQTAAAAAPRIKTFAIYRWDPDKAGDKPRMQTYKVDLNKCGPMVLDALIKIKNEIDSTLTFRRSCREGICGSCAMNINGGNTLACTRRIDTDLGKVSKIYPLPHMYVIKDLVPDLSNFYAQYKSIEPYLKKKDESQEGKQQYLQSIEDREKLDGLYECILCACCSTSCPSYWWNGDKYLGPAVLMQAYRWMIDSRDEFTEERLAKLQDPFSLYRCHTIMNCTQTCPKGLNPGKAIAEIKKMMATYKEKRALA
T1 sequence (Q641Z9 1-169): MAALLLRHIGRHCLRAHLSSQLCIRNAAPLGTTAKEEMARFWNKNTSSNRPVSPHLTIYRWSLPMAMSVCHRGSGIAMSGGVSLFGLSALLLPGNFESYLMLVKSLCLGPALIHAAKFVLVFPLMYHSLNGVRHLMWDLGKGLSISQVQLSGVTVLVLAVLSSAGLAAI
T1 sequence (Q6PCT8 57-159): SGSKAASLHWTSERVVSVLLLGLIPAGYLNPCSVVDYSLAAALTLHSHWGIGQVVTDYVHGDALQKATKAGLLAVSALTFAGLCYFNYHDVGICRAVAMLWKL
Experimental: The assay was performed as follows. Mitochondria were isolated either from fresh rat hearts or by differential centrifugation in sucrose-based buffer as previously described.^24 Complex II enzymatic activity was determined spectrophotometrically as the rate of succinate-driven, co-enzyme Q2-linked reduction of dichlorophenolindophenol (DCPIP).^49 Mitochondria or sub-mitochondrial particles were incubated in phosphate buffer (pH 7.4) containing 40 μM DCPIP, 1 mM KCN, 10 μM rotenone, and 50 μM co-enzyme Q2. The rate of reduction of DCPIP to DCPIPH2 was followed at […] (ε=21,000 M-1). Varying amounts of succinate and inhibitors were used to determine an IC50 value. At the end of each run thenoyltrifluoroacetone (1 mM) was added and the residual TTFA-insensitive rate subtracted.

[7] = HUVEC, 48 h, 20 μM compound, HUVEC, 48 h, relative to VEGF treated cells, mean ± SEM n = 3
[8] = 100 μM, relative to DMSO control

SMILES	inhibition of VEGF-induced HUVEC proliferation (in words) [1]	inhibition at 20 µM [1, 7]	IC50 [2]	IC50 [4]	IC50 [5]	also measured
O=S1(=O)N=C(NCCCc2ccccc2)Nc2ccc(Cl)cc21 [Compound 60e, 7-Chloro-3-((3-phenylpropyl)amino)-4H-benzo[e][1,2,4]thiadiazine 1,1-dioxide]	suppressed HUVEC proliferation; also recorded: enhanced activity	92 ± 15%	30.9 µM			
CCCCCC(=O)c1c(O)nc(OC)c(OC)c1O [AA5-16c, reference compound]			25.9 ± 2.4 µM	0.064 µM	6.71 ± 0.8 µM	cytotoxicity at 20 µM ([3]; 22Rv1, read-out: reduction of 22Rv1 cell viability): 60%; ligand-lipophilicity efficiency [4]: 5.62
CNC(=O)c1cc(Oc2ccc(NC(=O)Nc3ccc(Cl)c(C(F)(F)F)c3)cc2)ccn1 [Sorafenib, reference compound]			2.95 ± 0.1 µM		7.31 ± 1.9 µM	
O=S1(=O)N=C(NCc2ccccc2OC(F)(F)F)Nc2cc(Cl)ccc21 [Compound 43b, 6-Chloro-3-((2-(trifluoromethoxy)benzyl)amino)-4H-benzo[e][1,2,4]thiadiazine 1,1-dioxide]	suppressed HUVEC proliferation; also recorded: enhanced activity	124 ± 4%	30.5 µM		14.9 µM	
O=C(O)CC(=O)O [Malonate]				40 µM		
O=S1(=O)N=C(NCc2ccccc2)Nc2cc(Cl)ccc21 [Compound 21b, 3-(benzylamino)-6-chloro-4H-benzo[e][1,2,4]thiadiazine 1,1-dioxide]	suppressed HUVEC proliferation; also recorded: enhanced activity		102 ± 16.1 µM		64.2 ± 14.2 µM	cytotoxicity at 100 µM [3]: ~35%; % Inhibition of Proliferation ([1]; 20 μM compound, HUVEC, 48 h, relative to VEGF treated cells, mean ± SEM n = 3, 20 µM): 200±12% and 125±10%; inhibition of CII [6, 8]: inactive; inhibition at 100 µM [6, 8]: 0%
O=S1(=O)N=C(NCc2ccc(F)cc2F)Nc2cc(Cl)ccc21 [Compound 29b, 6-chloro-3-((2,4-difluorobenzyl)amino)-4H-benzo[e][1,2,4]thiadiazine 1,1-dioxide]	suppressed HUVEC proliferation; also recorded: enhanced activity	167 ± 14%	129 ± 12.2 µM		84.6 µM	
COc1[nH]c(=O)c(C(=O)[C@@H](C)C[C@H](C)[C@@H](Cl)CCl)c(O)c1OC [Atpenin A5, reference compound]				0.0033 µM		IC50 ([4]; listed as atpenin A5): 0.0036 to 0.01 µM; inhibition of CII ([6]; 0.1 μM): 93%; IC50 ([6]; positive control, read-out: CII IC50): 0.0033 µM
O=S1(=O)N=C(NCCCCc2ccccc2)Nc2ccc(Cl)cc21 [Compound 65e, 7-Chloro-3-((4-phenylbutyl)amino)-4H-benzo[e][1,2,4]thiadiazine 1,1-dioxide]	suppressed HUVEC proliferation; also recorded: enhanced activity	116 ± 16%	23.4 µM			
O=S1(=O)N=C(NCCCc2ccccc2)Nc2cc(Cl)ccc21 [Compound 23b, 6-chloro-3-((3-phenylpropyl)amino)-4H-benzo[e][1,2,4]thiadiazine 1,1-dioxide]	suppressed HUVEC proliferation; also recorded: enhanced activity	178 ± 8%	111 ± 7.4 µM		91.9 ± 16.8 µM	cytotoxicity at 100 µM [3]: ~35%; inhibition at 100 µM [6, 8]: 30%
O=S1(=O)N=C(NCc2ccc(F)cc2F)Nc2ccc(Cl)cc21 [Compound 63e, 7-Chloro-3-((2,4-difluorobenzyl)amino)-4H-benzo[e][1,2,4]thiadiazine 1,1-dioxide]	suppressed HUVEC proliferation; also recorded: enhanced activity	133 ± 12%	58.9 ± 13.7 µM		45.5 µM	
Cc1c(C)c2c(c(C)c1OC(=O)CCC(=O)O)CC[C@@](C)(CCC[C@H](C)CCC[C@H](C)CCCC(C)C)O2 [α-Tocopheryl succinate]				42 µM		
O=C(CC(=O)C(F)(F)F)c1cccs1 [Thenoyltrifluoroacetone]				30 µM		
